According to paper PMC12447755, “β-Lactamase cleavable antimicrobial peptide–drug conjugates” (Chemical Science, 2025):
Like-named read-outs stand apart in the source and are kept apart here. Where a SMILES comes first, the peptide text is derived from it. Where no end group is shown, it is not given here.

Assays:
[1] = system: Pseudomonas aeruginosa strain PAO1; test: Initial susceptibility testing at a fixed concentration; format: cell-based; set-up: key: Tick (✓) represents OD600 comparable to no-growth control; cross (✗) represents OD600 comparable to growth control without any peptide; conditions: 256 μg mL−1 of peptide, overnight incubation, OD600 compared with growth and no-growth controls
[2] = system: P. aeruginosa strain PAO1
[3] = system: P. aeruginosa strain PA14
[4] = Table 2, broth microdilution in MH medium, 37 °C, 16 h, MTT and OD600, triplicate
[5] = Table S5, altered linking region between peptide and cephalosporin

Molecule	Inh (inhibition) [1]	PAO1 MIC ([2]; PAO1, 18 h)	PA14 MIC ([3]; PA14, 18 h)	other results
CC(C)C[C@H](NC(=O)[C@H](Cc1c[nH]cn1)NC(=O)[C@H](CCCCN)NC(=O)[C@H](CS)NC(=O)[C@H](Cc1ccc(O)cc1)NC(=O)[C@H](CC(N)=O)NC(=O)[C@H](CCC(N)=O)NC(=O)[C@@H](NC(=O)[C@H](Cc1c[nH]c2ccccc12)NC(=O)[C@@H](N)CCCCN)C(C)C)C(=O)NCC(=O)N[C@@H](CCCNC(=N)N)C(=O)N[C@@H](CCCCN)C(=O)N[C@@H](CS)C(=O)N[C@@H](Cc1c[nH]cn1)C(=O)N[C@H](C(=O)N[C@@H](CC(C)C)C(=O)N[C@@H](CCCCN)C(=O)N[C@H](C(N)=O)[C@@H](C)O)[C@@H](C)O [P6] (H-KWVQNYCKHLGRKCHTLKT-NH2)	✗			
CC(=O)N[C@@H](Cc1c[nH]c2ccccc12)C(=O)N[C@H]1CSCCc2cc(nc(NCCCc3ccccc3)n2)CCSC[C@@H](C(=O)N[C@@H](Cc2ccccc2)C(N)=O)NC(=O)CNC(=O)[C@H](CCCNC(=N)N)NC(=O)[C@H](Cc2ccccc2)NC(=O)[C@H](CCCCN)NC(=O)[C@H](CCCCN)NC(=O)[C@H](CC(C)C)NC1=O [P3-1] (HELM PEPTIDE1{[ac].W.C.L.K.K.F.R.G.C.F.[am]}|CHEM1{[c1ccc(CCCNc2nc(CC[*:1])cc(CC[*:2])n2)cc1]}$PEPTIDE1,CHEM1,3:R3-1:R1|PEPTIDE1,CHEM1,10:R3-1:R2$$$V2.0)	✗			
CC[C@H](C)[C@H](NC(=O)[C@H](CCCCN)NC(=O)[C@H](CCCCN)NC(=O)[C@@H]1CSCCc2cc(nc(NCCCc3ccccc3)n2)CCSC[C@H](NC(=O)[C@H](CC(C)C)NC(=O)[C@H](CCCNC(=N)N)NC(=O)[C@H](CCCNC(=N)N)NC(=O)[C@H](Cc2ccccc2)NC(=O)[C@@H](N)CCCNC(=N)N)C(=O)N[C@@H](CCCCN)C(=O)N[C@@H](CCCCN)C(=O)N[C@@H](Cc2c[nH]c3ccccc23)C(=O)N[C@@H](CCCNC(=N)N)C(=O)N[C@@H](CCCCN)C(=O)N[C@@H](CCCNC(=N)N)C(=O)N1)C(N)=O [P4-1] (HELM PEPTIDE1{R.F.R.R.L.C.K.K.W.R.K.R.C.K.K.I.[am]}|CHEM1{[c1ccc(CCCNc2nc(CC[*:1])cc(CC[*:2])n2)cc1]}$PEPTIDE1,CHEM1,6:R3-1:R1|PEPTIDE1,CHEM1,13:R3-1:R2$$$V2.0)	✓			
C[C@@H]1NC(=O)[C@H](Cc2c[nH]c3ccccc23)NC(=O)[C@H](CCCCN)NC(=O)[C@@H](NC(=O)[C@@H](N)Cc2ccccc2)CSCCc2cc(nc(NCCCC(=O)N3CCN(c4cc5c(cc4F)c(=O)c(C(=O)O)cn5C4CC4)CC3)n2)CCSC[C@@H](C(=O)N[C@@H](CCCCN)C(=O)N[C@@H](CCCCN)C(N)=O)NC(=O)[C@H](Cc2c[nH]c3ccccc23)NC(=O)[C@H](CCCCN)NC(=O)[C@H](Cc2ccccc2)NC1=O [P2-12] (HELM PEPTIDE1{F.C.K.W.A.F.K.W.C.K.K.[am]}|CHEM1{[O=C(O)c1cn(C2CC2)c2cc(N3CCN(C(=O)CCCNc4nc(CC[*:1])cc(CC[*:2])n4)CC3)c(F)cc2c1=O]}$PEPTIDE1,CHEM1,2:R3-1:R1|PEPTIDE1,CHEM1,9:R3-1:R2$$$V2.0)				MIC for PAO1 [2, 4]: > 64 µg/mL; MIC for PA14 [3, 4]: > 64 µg/mL
CC[C@H](C)[C@H](NC(=O)[C@H](CCCCN)NC(=O)[C@H](CCCCN)NC(=O)[C@H](CS)NC(=O)[C@H](CCCNC(=N)N)NC(=O)[C@H](CCCCN)NC(=O)[C@H](CCCNC(=N)N)NC(=O)[C@H](Cc1c[nH]c2ccccc12)NC(=O)[C@H](CCCCN)NC(=O)[C@H](CCCCN)NC(=O)[C@H](CS)NC(=O)[C@H](CC(C)C)NC(=O)[C@H](CCCNC(=N)N)NC(=O)[C@H](CCCNC(=N)N)NC(=O)[C@H](Cc1ccccc1)NC(=O)[C@@H](N)CCCNC(=N)N)C(N)=O [P4] (H-RFRRLCKKWRKRCKKI-NH2)	✗			
C[C@@H]1NC(=O)[C@H](Cc2c[nH]c3ccccc23)NC(=O)[C@H](CCCCN)NC(=O)[C@@H](NC(=O)[C@@H](N)Cc2ccccc2)CSCCc2cc(nc(NCCCC(=O)N[C@@H](C(=O)N[C@@H]3C(=O)N4C(C(=O)O)=C(COC(=O)N5CCN(c6cc7c(cc6F)c(=O)c(C(=O)O)cn7C6CC6)CC5)CS[C@H]34)c3ccccc3)n2)CCSC[C@@H](C(=O)N[C@@H](CCCCN)C(=O)N[C@@H](CCCCN)C(N)=O)NC(=O)[C@H](Cc2c[nH]c3ccccc23)NC(=O)[C@H](CCCCN)NC(=O)[C@H](Cc2ccccc2)NC1=O [P2-21]		27 µM	13 µM	PAO1 MIC [2, 5]: 64 µg/mL; PA14 MIC ([3]; Table S5): 32 µg/mL
CC(=O)N[C@H](C(=O)N[C@@H](CC(C)C)C(=O)N[C@@H](CCCCN)C(=O)N[C@@H](CCC(N)=O)C(=O)N[C@@H](Cc1ccccc1)C(=O)N[C@H]1CSCCc2cc(nc(NCCCc3ccccc3)n2)CCSC[C@@H](C(=O)N[C@H](C(=O)N[C@@H](CCCCN)C(N)=O)C(C)C)NC(=O)[C@H](Cc2c[nH]c3ccccc23)NC(=O)[C@H](CCCCN)NC(=O)CNC(=O)[C@H](C(C)C)NC(=O)CNC(=O)[C@H](CCCCN)NC1=O)[C@@H](C)O [P1-1] (HELM PEPTIDE1{[ac].T.L.K.Q.F.C.K.G.V.G.K.W.C.V.K.[am]}|CHEM1{[c1ccc(CCCNc2nc(CC[*:1])cc(CC[*:2])n2)cc1]}$PEPTIDE1,CHEM1,7:R3-1:R1|PEPTIDE1,CHEM1,14:R3-1:R2$$$V2.0)	✗			
CC[C@H](C)CCCCC(=O)N[C@@H](CCN)C(=O)N[C@H](C(=O)N[C@@H](CCN)C(=O)N[C@H]1CCNC(=O)[C@H]([C@@H](C)O)NC(=O)[C@H](CCN)NC(=O)[C@H](CCN)NC(=O)[C@H](CC(C)C)NC(=O)[C@@H](Cc2ccccc2)NC(=O)[C@H](CCN)NC1=O)[C@@H](C)O [Polymyxin B, reference compound] (HELM PEPTIDE1{[CC[C@H](C)CCCCC(=O)[*:2]].[Dab].T.[Dab].[Dab].[Dab].[dF].L.[Dab].[Dab].T}$PEPTIDE1,PEPTIDE1,5:R3-11:R2$$$V2.0; N-terminus assumed; bridges inferred)		0.83 µM		MIC for PAO1 ([2]; PAO1, 18 h): 1.7 µM; PAO1 MIC ([2]; Table S3, initial MIC values): 2 µg/mL; PAO1 MIC ([2]; Table S4, cephalosporin-based staple 8 at different positions): 1 µg/mL; MIC for PA14 ([3]; PA14, 18 h): 0.83 µM; PA14 MIC ([3]; Table S3, initial MIC values): 1 µg/mL; PA14 MIC ([3]; Table S4): 0.83 µM
C[C@@H]1NC(=O)[C@H](Cc2c[nH]c3ccccc23)NC(=O)[C@H](CCCCN)NC(=O)[C@@H](NC(=O)[C@@H](N)Cc2ccccc2)CSCCc2cc(nc(NCCCC(=O)NCCCCCC(=O)N[C@@H]3C(=O)N4C(C(=O)O)=C(COC(=O)N5CCN(c6cc7c(cc6F)c(=O)c(C(=O)O)cn7C6CC6)CC5)CS[C@H]34)n2)CCSC[C@@H](C(=O)N[C@@H](CCCCN)C(=O)N[C@@H](CCCCN)C(N)=O)NC(=O)[C@H](Cc2c[nH]c3ccccc23)NC(=O)[C@H](CCCCN)NC(=O)[C@H](Cc2ccccc2)NC1=O [P2-20]		13 µM	13 µM	PAO1 MIC [2, 5]: 32 µg/mL; PA14 MIC ([3]; Table S5): 32 µg/mL
CC(=O)OCC1=C(C(=O)O)N2C(=O)[C@@H](NC(=O)CCCNc3nc4cc(n3)CCSC[C@H](NC(=O)[C@H](CCCCN)NC(=O)[C@H](C)NC(=O)[C@@H](N)Cc3ccccc3)C(=O)N[C@@H](C)C(=O)N[C@@H](Cc3ccccc3)C(=O)N[C@@H](CCCCN)C(=O)N[C@@H](Cc3c[nH]c5ccccc35)C(=O)N[C@@H](CC(C)C)C(=O)N[C@@H](CCCCN)C(=O)N[C@H](C(N)=O)CSCC4)[C@H]2SC1 [P10-8]		> 35 µM	> 35 µM	
CC(=O)OCC1=C(C(=O)O)N2C(=O)[C@@H](NC(=O)CCCNc3nc4cc(n3)CCSC[C@H](N)C(=O)N[C@@H](C)C(=O)N[C@@H](CCCCN)C(=O)N[C@@H](Cc3c[nH]c5ccccc35)C(=O)N[C@@H](C)C(=O)N[C@@H](Cc3ccccc3)C(=O)N[C@@H](CCCCN)C(=O)N[C@H](C(=O)N[C@@H](CC(C)C)C(=O)N[C@@H](CCCCN)C(=O)N[C@@H](CCCCN)C(N)=O)CSCC4)[C@H]2SC1 [P8-8]		> 35 µM	> 35 µM	
RFRRLRKKWRKRLKKI-NH2 [P4a, reference compound]	✓			
CC(=O)OCC1=C(C(=O)O)N2C(=O)[C@@H](NC(=O)CCCNc3nc4cc(n3)CCSC[C@H](NC(=O)[C@H](CCCCN)NC(=O)[C@H](C)NC(=O)[C@H](Cc3ccccc3)NC(=O)[C@@H](N)CCCCN)C(=O)N[C@@H](C)C(=O)N[C@@H](Cc3ccccc3)C(=O)N[C@@H](CCCCN)C(=O)N[C@@H](Cc3c[nH]c5ccccc35)C(=O)N[C@@H](CC(C)C)C(=O)N[C@@H](CCCCN)C(=O)N[C@H](C(N)=O)CSCC4)[C@H]2SC1 [P12-8]		> 33 µM	> 33 µM	
CC(=O)OCC1=C(C(=O)O)N2C(=O)[C@@H](NC(=O)CCCNc3nc4cc(n3)CCSC[C@H](NC(=O)[C@H](Cc3c[nH]c5ccccc35)NC(=O)[C@H](CCCCN)NC(=O)[C@H](C)NC(=O)[C@@H](N)Cc3ccccc3)C(=O)N[C@@H](Cc3ccccc3)C(=O)N[C@@H](CCCCN)C(=O)N[C@@H](Cc3c[nH]c5ccccc35)C(=O)N[C@@H](CC(C)C)C(=O)N[C@@H](CCCCN)C(=O)N[C@@H](CCCCN)C(=O)N[C@H](C(N)=O)CSCC4)[C@H]2SC1 [P9-8]		> 31 µM	31 µM	
CCCCCCCC(=O)NCC(=O)N[C@H]1CSCCc2cc(nc(NCCCc3ccccc3)n2)CCSC[C@@H](C(=O)N[C@@H](CC(C)C)C(N)=O)NC(=O)[C@H](CCCCN)NC(=O)[C@H](CCCCN)NC(=O)[C@H]([C@@H](C)CC)NC(=O)[C@H](Cc2ccccc2)NC(=O)[C@H](CCCCN)NC(=O)[C@H](CC(C)C)NC1=O [P5-1] (HELM PEPTIDE1{[CCCCCCCC(=O)[*:2]].G.C.L.K.F.I.K.K.C.L.[am]}|CHEM1{[c1ccc(CCCNc2nc(CC[*:1])cc(CC[*:2])n2)cc1]}$PEPTIDE1,CHEM1,3:R3-1:R1|PEPTIDE1,CHEM1,10:R3-1:R2$$$V2.0)	✗			
CC(=O)OCC1=C(C(=O)O)N2C(=O)[C@@H](NC(=O)CCCNc3nc4cc(n3)CCSC[C@H](N)C(=O)N[C@@H](Cc3ccccc3)C(=O)N[C@@H](C)C(=O)N[C@@H](CCCCN)C(=O)N[C@@H](Cc3c[nH]c5ccccc35)C(=O)N[C@@H](C)C(=O)N[C@@H](Cc3ccccc3)C(=O)N[C@H](C(=O)N[C@@H](Cc3c[nH]c5ccccc35)C(=O)N[C@@H](CC(C)C)C(=O)N[C@@H](CCCCN)C(=O)N[C@@H](CCCCN)C(N)=O)CSCC4)[C@H]2SC1 [P11-8]		> 32 µM	> 32 µM	
